Each structure is given as a SMILES string. Values after ≈ are worked out from the molar mass of the structure shown.

One assay concerns Mycobacterium tuberculosis. Briefly: Antitubercular activity against Mycobacterium tuberculosis H37Rv assessed as bacterial growth inhibition measured after 7 days by REMA method. As to conditions: 168 h, time 7 day. It counts as functional.
The MIC is the least concentration at which growth counts as inhibited. Regarding `O=c1nc(NCc2cn(-c3ccc(Cl)cc3)nn2)sc2c(Cl)cc(C(F)(F)F)cc12`, the minimal inhibitory concentration (MIC) is 0.03 µg/mL (≈ 0.0635 µM).
Still for that read-out and setting: for `O=c1nc(NCc2cn(-c3ccc(Cl)cc3)nn2)sc2c(Cl)cc(Cl)cc12` the value was 0.03 µg/mL (≈ 0.0684 µM).
On the same count and under the same terms, as for `O=c1nc(NCc2cn(-c3ccc(Cl)cc3)nn2)sc2c(Cl)cc(Br)cc12`, the figure is 0.03 µg/mL (≈ 0.0621 µM); as for `O=c1nc(NCc2cn(-c3ccc(Cl)cc3)nn2)sc2c(Cl)cc(F)cc12`, 0.03 µg/mL (≈ 0.071 µM).
On the same count and under the same terms, for `Cc1cc(=O)oc2cc(OCc3cn(CCCCCCCCn4cc(COc5cc6oc(=O)cc(C)c6cc5Cl)nn4)nn3)c(Cl)cc12` the value was 1.56 µg/mL (≈ 2.25 µM); for `Cc1cc(=O)oc2cc(OCc3cn(CCCCCCCCCCn4cc(COc5cc6oc(=O)cc(C)c6cc5Cl)nn4)nn3)c(Cl)cc12`, 1.56 µg/mL (≈ 2.16 µM); for `COc1ccc(-n2nc(C)cc2Cn2cncn2)cc1`, 100 µg/mL (≈ 371 µM).

The subject of the next assay is Mycobacterium tuberculosis. Briefly: Antitubercular activity against Mycobacterium tuberculosis H37Rv assessed as bacterial growth inhibition measured after 7 days by MABA method. It counts as functional. As to conditions: 168 h, time 7 day. In general terms: The colour change of resazurin is a common sign of viable cells or microbes.
On to `CCCCCc1ccc(-c2cn(CC(O)COc3ccc4c(c3)OC3(CCCCC3)CC4=O)nn2)cc1` (configuration not stated), for which the minimal inhibitory concentration (MIC) came to 0.78 µg/mL (≈ 1.55 µM).
On the same count and under the same terms, for `COc1ccc(-n2nnc3c2CCC2(C=Cc4cc(Cl)ccc4O2)C3)cc1` (configuration not stated) the value was 1.56 µg/mL (≈ 4.11 µM); for `COc1ccc(-n2nnc3c2CCC2(C=Cc4cc(C)ccc4O2)C3)cc1` (configuration not stated), 1.56 µg/mL (≈ 4.34 µM).

The next assay deals with Mycobacterium tuberculosis. Briefly: Antitubercular activity against Mycobacterium tuberculosis H37Rv assessed as bacterial growth inhibition. The class given is functional.
Conditions: not given
In the case of `O=C1Nc2ccccc2/C1=N\OCc1cn(Cc2ccc(Cl)cc2)nn1`, the minimal inhibitory concentration (MIC) came to 1.56 µg/mL (≈ 4.24 µM).
Still for that read-out and setting: for `O=C1Nc2ccccc2/C1=N\OCc1cn(Cc2ccc(F)cc2)nn1` the value was 0.78 µg/mL (≈ 2.22 µM); for `CCCCCCc1cn(CCCC2C3CC4CC(C3)CC2C4)nn1.Cl` (configuration not stated), 6.2 µg/mL.
On the same count and under the same terms, for `O=C(N/N=C/c1cc(Cl)cc(Cl)c1OCc1cn(-c2ccccc2Cl)nn1)c1ccncc1` the value was 1.56 µg/mL (≈ 3.11 µM); for `O=C1Nc2ccccc2/C1=N\OCc1cn(Cc2cccc(C(F)(F)F)c2)nn1`, 3.12 µg/mL (≈ 7.79 µM); for `O=C1Nc2ccccc2/C1=N\OCc1cn(Cc2ccc(C(F)(F)F)cc2)nn1`, 1.56 µg/mL (≈ 3.89 µM).

For another assay, the system named is Mycobacterium tuberculosis. Kind of assay: Antitubercular activity against Mycobacterium tuberculosis mc 2 7000 assessed as bacterial growth inhibition. The class given is functional.
Conditions: not given
In the case of `CC1=C(C(=O)O)N2C(=O)[C@@H](NC(=O)[C@H](N)c3ccccc3)[C@H]2SC1` [CEPHALEXIN ANHYDROUS], the MIC was 72 µM (≈ 25 µg/mL).
Regarding `CCc1cc(C(N)=S)ccn1` [ETHIONAMIDE], the MIC was 90.4 µM (≈ 15 µg/mL).

The next assay relates to Mycobacterium tuberculosis. Kind of assay: Antitubercular activity against Mycobacterium tuberculosis H37Rv ATCC 27294 assessed as bacterial growth inhibition measured after 10 days by MABA method. It counts as functional. As to conditions: H37Rv ATCC 27294, 240 h, time 10 day.
As for `CC1=CN([C@H]2C[C@H](O)[C@@H](Cn3nnc(C(=O)c4ccc(Cl)cc4)c3-c3ccc(C(C)(C)C)cc3)O2)C(=O)CC1=O`, the MIC was 2 µg/mL (≈ 3.55 µM).
The same measure, in the same setting: as for `CC1=CN([C@H]2C[C@H](O)[C@@H](Cn3nnc(C(=O)c4ccc(Br)cc4)c3-c3ccc([N+](=O)[O-])cc3)O2)C(=O)CC1=O`, the figure is 2 µg/mL (≈ 3.35 µM); as for `CC1=CN([C@H]2C[C@H](O)[C@@H](Cn3nnc(C(=O)c4ccc(Cl)cc4)c3-c3ccc(F)cc3)O2)C(=O)CC1=O`, 2 µg/mL (≈ 3.81 µM).

Another assay concerns Mycobacterium tuberculosis. Kind of assay: Antitubercular activity against Mycobacterium tuberculosis H37Rv assessed as bacterial growth inhibition by micro broth dilution assay. The class given is functional.
Conditions: not given
(Broth dilution looks for growth in wells or tubes with falling amounts of substance.)
With `CC(C)=CCC/C(C)=C/COc1ccc(/C=C/c2nnc3c4ccccc4cnn23)cc1`, the MIC stood at 0.5 µg/mL.
On to `Brc1ccc(/C=C/c2nnc3c4ccccc4cnn23)cc1`, for which the minimal inhibitory concentration (MIC) is 0.5 µg/mL.
The same measure, in the same setting: as for `C#Cc1nnc2c3ccccc3cnn12`, the figure is 0.5 µg/mL.
On the same count and under the same terms, as for `CCCCCCCCCNC(=O)Cc1nnc2c3ccccc3cnn12`, the figure is 0.5 µg/mL.

A further assay has as its system Mycobacterium tuberculosis. Kind of assay: Antitubercular activity against Mycobacterium tuberculosis H37Rv assessed as bacterial growth inhibition at 6.25 ug/ml measured after 5 to 8 days by radiometric analysis relative to control. It counts as functional. The arrangement: scale not given: the % may be the effect or the level left. As to conditions: dose 6.25 µg/ml; time 5-8 day.
In the case of `Cc1nc2ccccc2n2c(-c3ccc([N+](=O)[O-])cc3)nnc12`, the Activity is 2%.
Still for that read-out and setting: as for `COc1ccc(-c2nnc3c(C)nc4ccccc4n23)cc1`, the figure is 2%; as for `Cc1nc2ccccc2n2c(-c3ccc(Cl)cc3)nnc12`, 2%.
Still for that read-out and setting: as for `Cc1nc2ccccc2n2c(-c3cccc([N+](=O)[O-])c3)nnc12`, the figure is 2%; as for `COc1cccc(-c2nnc3c(C)nc4ccccc4n23)c1`, 2%.
The same measure, in the same setting: as for `Cc1nc2ccccc2n2c(-c3ccc(N(C)C)cc3)nnc12`, the figure is 2%; as for `Cc1nc2ccccc2n2c(-c3ccccc3)nnc12`, 2%.

Values taken from ChEMBL document CHEMBL5214920, “Emerging impact of triazoles as anti-tubercular agent” (Eur J Med Chem, 2022).
